# Results: patent US7795296B2, “Crystals of non-natural-type stereoisomer salt of monatin and use thereof” (Ajinomoto Co., Inc., priority 2001, dated 2010)
# Where two headings read alike, the source gives them in different places.
# Assays:
# panelists = assay: Intensity of sweet taste, tasted against a 5% aqueous sucrose standard solution; format: in vivo; conditions: for Sweetness Intensity / Degree of sweet taste / intensity of sweet taste: as compared with a 5% aqueous solution of sucrose; for Degree of sweet taste / intensity of sweet taste: salt crystals
# Method: Intensity of sweet taste (sweetening potency; degree of sweet taste) of the crystals of each stereoisomer obtained can be determined by comparing with a 5% aqueous solution of sucrose, but a method for the determination of intensity of sweet taste is not limited thereto. “Sweet taste” intensity of each stereoisomer obtained was measured by the following method. A 0.05% aqueous solution of each stereoisomer was prepared and diluted to an appropriate extent to prepare an aqueous solution of a sample of a predetermined concentration. Separately, a 5% aqueous solution of sucrose was prepared and used as a standard solution. The diluted aqueous solution of the sample and the standard aqueous sucrose solution were tasted one after another and the sweetness rate was determined from the sample concentration where the intensities of sweetness were noted to be same. Seven panelists performed the evaluation.
# [1] = hydrochlorides, reported by K. Nakamura et al., cited from earlier work
# [2] = Comparison of thermostability of the crystals (120° C., open vial, decomposed products by HPLC); format: physicochemical; conditions: area % to residual monatin
# Method: Comparison of Thermostability of the Crystals.
# Each 50 mg of the crystals and the amorphous solid prepared by the above-mentioned methods were placed in a 4-ml vial and preserved (kept) at the temperature of 120° C. At that time, the vial was made in an open state. Each 2 mg of the sample were taken out after retention time of 3 hours, 7 hours and 24 hours and the rate (ratio) of decomposed products were determined by means of HPLC (high-performance liquid chromatography).
# [3] = samples crystallized and purified as a sodium salt
# [4] = samples prepared by HPLC, purified by ion-exchange resin and freeze-dried as an ammonium salt
smiles,measurement,setting,value
"N[C@@H](C[C@@](O)(Cc1c[nH]c2ccccc12)C(=O)O)C(=O)O [(2S, 4S), (2S,4S)-2-amino-4-carboxy-4-hydroxy-5-(3-indolyl)-pentanoic acid]",Intensity of the sweet taste,"panelists; Example 1 ammonium salts, amorphous solid, 5% aqueous sucrose standard, seven panelists",about 300 fold
same,Sweetness Intensity,panelists; [3],ca. 50
same,Sweetness Intensity,panelists; [4],ca. 300
same,"Intensity of sweet taste, comparison in words",panelists; comparison among the four stereoisomers and with reported data,far lower than the data which were reported already
same,Degree of sweet taste / intensity of sweet taste,panelists,about 50 fold
NC(CC(O)(Cc1c[nH]c2ccccc12)C(=O)O)C(=O)[O-].[Na+] (centres unmarked) [Example 11],Degree of sweet taste / intensity of sweet taste,panelists,about 1300 fold
Cl.N[C@@H](C[C@](O)(Cc1c[nH]c2ccccc12)C(=O)O)C(=O)O,"Sweet taste, in words",[1],almost no sweet taste
same,"Sweet taste, in words","[1]; listed as synthetic (2S,4R) monatin substance",slightly sweet taste
N[C@H](CC(O)(Cc1c[nH]c2ccccc12)C(=O)O)C(=O)O (some centres unmarked) [Free substance crystals],Rate of Decomposed Product A (%),[2]; retention time 3 hours,2.0%
same,Rate of Decomposed Product B (%),[2]; retention time 3 hours,2.1%
same,Rate of Decomposed Product A (%),[2]; retention time 7 hours,3.8%
same,Rate of Decomposed Product B (%),[2]; retention time 7 hours,4.3%
same,Rate of Decomposed Product A (%),[2]; retention time 24 hours,5.3%
same,Rate of Decomposed Product B (%),[2]; retention time 24 hours,11.7%
"N[C@H](CC(O)(Cc1c[nH]c2ccccc12)C(=O)O)C(=O)O (stereo partly drawn) [(2R, 4S)]",Sweetness Intensity,panelists; [3],ca. 1300
same,Sweetness Intensity,panelists; [4],ca. 800
N.N[C@H](C[C@](O)(Cc1c[nH]c2ccccc12)C(=O)O)C(=O)O [Ammonium salt crystals],Rate of Decomposed Product A (%),[2]; retention time 3 hours,1.9%
same,Rate of Decomposed Product B (%),[2]; retention time 3 hours,1.2%
same,Rate of Decomposed Product A (%),[2]; retention time 7 hours,3.8%
same,Rate of Decomposed Product B (%),[2]; retention time 7 hours,2.3%
same,Rate of Decomposed Product A (%),[2]; retention time 24 hours,11.8%
same,Rate of Decomposed Product B (%),[2]; retention time 24 hours,7.6%
"Cl.N[C@@H](C[C@@](O)(Cc1c[nH]c2ccccc12)C(=O)O)C(=O)O [synthetic (2S,4S) monatin substance]","Sweet taste, in words",[1],sweet potency equivalent to that of the a natural specimen of monatin
